Read-outs that look alike come from different tables or passages of the source.
Assays:
[1] = Intracellular ATP levels; assay type: cell-based; conditions: read-out: ATP TC50; for CC50 at 72 h: SK-MEL28, 72 HR, run #2
Description: Intracellular ATP Levels: Cellular Adenosine triphosphate (ATP) was determined with an assay based on a reaction between ATP+D-luciferin+oxygen catalyzed by luciferase to yield Oxyluciferin+AMP+PPi+CO2+light. The emitted light is proportional to the amount of ATP present. […] In addition, a unique cell lysis reagent inhibits endogenous ATPases and therefore stabilizes cellular ATP by preventing its degradation to ADP. ATP is present in all-living cells and declines rapidly upon cell death. In addition, this assay in combination with the MTT assay provides an indicator of mitochondrial activity and energy status of the cell.
Plates were analyzed immediately or stored at −20° C. until needed. On the day of analysis, the plates were thawed and calibration curve prepared with ATP in the same liquid matrix as samples. ATP was quantified by adding ATP substrate solution and then reading luminescence on a Packard Fusion Luminescence or equivalent plate reader.
Intracellular ATP Levels: ATP levels in treated cells could be determined by using the regression coefficients obtained from the linear regression analysis of the calibration curve. Thus, values could be expressed as pmoles ATP/million cells. Background corrected luminescence was used to determine percent change relative to controls by dividing treated values by control values and multiplying by 100.
Dosing solutions were prepared in complete culture medium.

[2] = system: HUVEC; assay: Predicted Ctox from Tox-Panel; assay type: cell-based, human; conditions: 24 HR
Description: (§1) Studies such as these indicate that a preferred concentration for setting Ctox is the highest concentration at which there is no observed effect on any of the indicators being measured in the cluster analysis, especially a 24-hour cluster analysis. […] It will be apparent that 24 hour assays are more time-effective, and consequently, the 24 hour NOEL/Ctox represents a preferred data point to select as Ctox in a CATS assay. It will also be apparent that, with further time studies, it may be possible to select an equally suitable Ctox at other CATS assay time points (e.g., between 24 and 72 hours, or less than 24 hours).
(§2) In certain embodiments, the predicting comprises performing concentration response analyses of measurements from at least three separate assays that are employed in the cluster analysis. For example, in the cell health cluster, such predicting will involve monitoring the concentration response effect of the compound on a first health indicator which monitors cellular replication, a second cell health indicator which monitors mitochondrial function, and a third cell health indicator which monitors membrane integrity. Of course, it is understood that fourth, fifth, sixth or more cell health indicators also may be employed. From these concentration response analyses, the highest concentration of the chemical compound at which a measurable toxic effect of the chemical compound is not observable, i.e. NOEL, is determined and the Ctox is identified as the concentration that correlates to the NOEL. In choosing the concentrations of the compound for analysis, one of skill in the art should devise a dose response regimen which is selected to provide an indication of cell health at concentrations of at least two concentration values higher than the Ctox concentration.
(§3) The results are summarized in Tables 14-17 and in FIGS. 83-102. Table 14 compares the test compound TC50 values for each assay endpoint. Test compounds are rank-ordered from most to least toxic based on their TC50 values and overall shape of the response curves. The Ctox value, or estimated sustained blood concentration where toxicity would first be expected to occur in a rat 14-day repeated dose study, is also included in this table. Negative and positive controls are included with every run. Assay response is continually monitored to assure reliable results. […] Table 15 summarizes oxidative stress and apoptosis data, Table 16 summarizes the solubility data, and Table 17 provides information on interaction with PgP.
(§4) The Ctox value was developed using 24 hr in vitro (H4IIE) toxicity data and was validated by retrospectively evaluating compounds across different classes of drugs in 14-day rat studies in which compounds were administered on a daily basis and pharmacokinetic data was available. […] Thus, Ctox values are only determined for the 24 hr in vitro results. In this example, Ctox values could not be estimated due to low toxicity in most of the cell lines.

[3] = system: NHEM cells; assay: Predicted Ctox from Tox-Panel; assay type: cell-based, human; conditions: 24 HR
Description: as §1, §2, §3, §4

[4] = system: SK-MEL28 cells; assay: Predicted Ctox from Tox-Panel; assay type: cell-based, human; conditions: SK-MEL28, 24 HR
Description: as §1, §2, §3, §4

[5] = system: human hepatocytes; assay: Predicted Ctox from Tox-Panel; assay type: cell-based; conditions: 24 HR
Description: as §1
In certain embodiments, the predicting comprises performing concentration response analyses of measurements from at least three separate assays that are employed in the cluster analysis. […] From these concentration response analyses, the highest concentration of the chemical compound at which a measurable toxic effect of the chemical compound is not observable, i.e. NOEL, is determined and the Ctox is identified as the concentration that correlates to the NOEL. […]
The results are summarized in Tables 14-17 and in FIGS. 83-102. […] Assay response is continually monitored to assure reliable results. […]

SMILES | CC50 at 24 h ([1]; human hepatocytes) [µM] | CC50 at 72 h ([1]; human, SK-MEL28 cells) [µM] | Predicted Ctox [2] [µM] | Predicted Ctox [3] [µM] | Predicted Ctox [4] [µM] | Predicted Ctox ([4]; run #2) [µM] | Predicted Ctox [5] [µM] | CC50 at 24 h ([1]; human, HUVEC) [µM] | CC50 at 24 h ([1]; human, SK-MEL28 cells, SK-MEL28, 24 HR) [µM]
C=C(C)[C@H]1Cc2c(ccc3c2O[C@@H]2COc4cc(OC)c(OC)cc4[C@@H]2C3=O)O1 [ROTENONE, Rotenone] | 6 | 2 | 0.1 | 10 | 1 | 0 | 0.6 |  | 
CC[C@@]1(O)C(=O)OCc2c1cc1n(c2=O)Cc2cc3ccccc3nc2-1 [CAMPTOTHECIN, Camptothecin] |  | 0.1 | 0.1 | 33 | 0.1 | 0.1 | 23 | 40 | 293

— patent US7615361B2, “Toxicity screening methods” (Ceetox, Inc., priority 2006, dated 2009)
